Structures are written as SMILES.

The values below come from patent US8088815B2, “Spiroindolinone pyrrolidines” (Hoffman-La Roche Inc., priority 2009, dated 2012).

This assay concerns the target interaction between p53 and MDM2 proteins (Homo sapiens, UniProt Q00987). The assay can be described thus: HTRF assay of inhibition of the p53-MDM2 interaction (GST-MDM2 / biotinylated p53 peptide). Particulars: recombinant GST-tagged MDM2 and biotinylated p53 peptide, bsa:0.02%. It counts as binding.

Sequence of interaction between p53 and MDM2 proteins (Q00987 whole entry): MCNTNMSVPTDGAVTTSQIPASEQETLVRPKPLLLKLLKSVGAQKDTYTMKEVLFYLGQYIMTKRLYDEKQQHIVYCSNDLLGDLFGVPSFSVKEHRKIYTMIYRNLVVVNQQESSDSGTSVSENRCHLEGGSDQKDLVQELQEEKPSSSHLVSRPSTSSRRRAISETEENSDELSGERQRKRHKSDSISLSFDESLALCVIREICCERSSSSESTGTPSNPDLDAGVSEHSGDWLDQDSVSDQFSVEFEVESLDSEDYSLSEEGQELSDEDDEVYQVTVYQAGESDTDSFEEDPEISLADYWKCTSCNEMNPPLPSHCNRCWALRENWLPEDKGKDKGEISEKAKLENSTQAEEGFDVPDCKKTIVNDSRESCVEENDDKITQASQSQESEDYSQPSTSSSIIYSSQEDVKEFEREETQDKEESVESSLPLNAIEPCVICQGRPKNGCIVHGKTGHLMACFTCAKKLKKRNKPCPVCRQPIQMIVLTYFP

As a reminder, the IC50 is the concentration that gives 50% inhibition. `COC(=O)c1ccc(NC(=O)[C@@H]2N[C@@H](CC(C)(C)C)[C@@]3(C(=O)Nc4cc(Cl)ccc43)[C@H]2c2cccc(Cl)c2F)cc1OC` (racemic) [Example 15, rac-4-{[(2′S,3′R,4′S,5′R)-6-chloro-4′-(3-chloro-2-fluoro-phenyl)-2′-(2,2-dimethyl-propyl)-2-oxo-1,2-dihydro-spiro[indole-3,3′-pyrrolidine]-5′-carbonyl]amino}-2-methoxy-benzoic acid methyl ester]: the IC50 came out at 13 nM.

Regarding `CC(C)(C)C[C@@H]1N[C@@H](C(=O)Nc2ccc(C(N)=O)cc2)[C@H](c2cccc(Cl)c2F)[C@]12C(=O)Nc1cc(Cl)ccc12` [Example 9, chiral (2′S,3′R,4′S,5′R)-6-chloro-4′-(3-chloro-2-fluoro-phenyl)-2′-(2,2-dimethyl-propyl)-2-oxo-1,2-dihydro-spiro[indole-3,3′-pyrrolidine]-5′-carboxylic acid (4-carbamoyl-phenyl)-amide], the IC50 worked out at 4 nM.

`CNc1cc(C(=O)OC)ccc1NC(=O)[C@@H]1N[C@@H](CC(C)(C)C)[C@@]2(C(=O)Nc3cc(Cl)ccc32)[C@H]1c1cccc(Cl)c1F` (racemic) [Example 166, rac-4-{[(2′S,3′R,4′S,5′R)-6-chloro-4′-(3-chloro-2-fluoro-phenyl)-2′-(2,2-dimethyl-propyl)-2-oxo-1,2-dihydro-spiro[indole-3,3′-pyrrolidine]-5′-carbonyl]amino}-3-methylamino-benzoic acid methyl ester]: the IC50 came out at 25 nM.

Turning to `CC(=O)c1ccc(NC(=O)[C@@H]2N[C@@H](CC(C)(C)C)[C@@]3(C(=O)Nc4cc(Cl)ccc43)[C@H]2c2cccc(Cl)c2F)cc1` (racemic) [Example 11, rac-(2′S,3′R,4′S,5′R)-6-chloro-4′-(3-chloro-2-fluoro-phenyl)-2′-(2,2-dimethyl-propyl)-2-oxo-1,2-dihydro-spiro[indole-3,3′-pyrrolidine]-5′-carboxylic acid (4-acetyl-phenyl)-amide], the IC50 is 13 nM.

Regarding `CC(C)(C)C[C@@H]1N[C@@H](C(=O)Nc2ccc(C#N)cc2)[C@H](c2cccc(Cl)c2F)[C@]12C(=O)Nc1c2ccc(Cl)c1F` (racemic) [Example 175, rac-(2′S,3′R,4′S,5′R)-6-chloro-4′-(3-chloro-2-fluoro-phenyl)-2′-(2,2-dimethyl-propyl)-7-fluoro-2-oxo-1,2-dihydro-spiro[indole-3,3′-pyrrolidine]-5′-carboxylic acid (4-cyano-phenyl)-amide], the IC50 was 40 nM.

Take `CC(C)(C)C[C@@H]1N[C@@H](C(=O)Nc2ccc(C(N)=O)cc2F)[C@H](c2cccc(Cl)c2F)[C@]12C(=O)Nc1cc(Cl)ccc12` [Example 54, chiral (2′S,3′R,4′S,5′R)-6-chloro-4′-(3-chloro-2-fluoro-phenyl)-2′-(2,2-dimethyl-propyl)-2-oxo-1,2-dihydro-spiro[indole-3,3′-pyrrolidine]-5′-carboxylic acid (4-carbamoyl-2-fluoro-phenyl)-amide]: the IC50 worked out at 7 nM.

Consider `COc1cc(NC(=O)[C@@H]2N[C@@H](CC(C)(C)C)[C@@]3(C(=O)Nc4cc(Cl)ccc43)[C@H]2c2cccc(Cl)c2F)ccc1C(=O)O` [Example 17, chiral 4-{[(2′S,3′R,4′S,5′R)-6-chloro-4′-(3-chloro-2-fluoro-phenyl)-2′-(2,2-dimethyl-propyl)-2-oxo-1,2-dihydro-spiro[indole-3,3′-pyrrolidine]-5′-carbonyl]-amino}-2-methoxy-benzoic acid], for which the IC50 was determined as 4 nM.

For `CC(C)(C)C[C@@H]1N[C@@H](C(=O)Nc2cccc(C(=O)O)c2)[C@H](c2cccc(Cl)c2F)[C@]12C(=O)Nc1cc(Cl)ccc12` (racemic) [Example 32, rac-3-{[(2′S,3′R,4′S,5′R)-6-chloro-4′-(3-chloro-2-fluoro-phenyl)-2′-(2,2-dimethyl-propyl)-2-oxo-1,2-dihydro-spiro[indole-3,3′-pyrrolidine]-5′-carbonyl]-amino}-benzoic acid], the IC50 worked out at 17 nM.

Consider `CNc1cc(C(=O)O)ccc1NC(=O)[C@@H]1N[C@@H](CC(C)(C)C)[C@@]2(C(=O)Nc3cc(Cl)ccc32)[C@H]1c1cccc(Cl)c1F` (racemic) [Example 167, rac-4-{[(2′S,3′R,4′S,5′R)-6-chloro-4′-(3-chloro-2-fluoro-phenyl)-2′-(2,2-dimethyl-propyl)-2-oxo-1,2-dihydro-spiro[indole-3,3′-pyrrolidine]-5′-carbonyl]-amino}-3-methylamino-benzoic acid], for which the IC50 stood at 10 nM.

For the molecule `Cn1c(NC(=O)[C@@H]2N[C@@H](CC(C)(C)C)[C@@]3(C(=O)Nc4cc(Cl)ccc43)[C@H]2c2cccc(Cl)c2F)ccc1C(=O)OC(C)(C)C` (racemic) [Example 194, rac-5-{[(2′S,3′R,4′S,5′R)-6-chloro-4′-(3-chloro-2-fluoro-phenyl)-2′-(2,2-dimethyl-propyl)-2-oxo-1,2-dihydro-spiro[indole-3,3′-pyrrolidine]-5′-carbonyl]amino}-1-methyl-1H-pyrrole-2-carboxylic acid tert-butyl ester], the 50% inhibitory concentration (IC50) was found to be 55 nM.

For the molecule `COc1cc(OC2CCOCC2)ccc1NC(=O)[C@@H]1N[C@@H](CC(C)(C)C)[C@@]2(C(=O)Nc3cc(Cl)ccc32)[C@H]1c1cccc(Cl)c1F` [Example 157, chiral (2′S,3′R,4′S,5′R)-6-chloro-4′-(3-chloro-2-fluoro-phenyl)-2′-(2,2-dimethyl-propyl)-2-oxo-1,2-dihydro-spiro[indole-3,3′-pyrrolidine]-5′-carboxylic acid [2-methoxy-4-(tetrahydro-pyran-4-yloxy)-phenyl]-amide], the IC50 was 10 nM.

Regarding `COc1cc(C#N)ccc1NC(=O)[C@@H]1N[C@@H](CC(C)(C)C)[C@@]2(C(=O)Nc3cc(Cl)ccc32)[C@H]1c1cccc(Br)c1F` (racemic) [Example 116, rac-(2′S,3′R,4′S,5′R)-4′-(3-bromo-2-fluoro-phenyl)-6-chloro-2′-(2,2-dimethyl-propyl)-2-oxo-1,2-dihydro-spiro[indole-3,3′-pyrrolidine]-5′-carboxylic acid (4-cyano-2-methoxy-phenyl)-amide], the IC50 worked out at 15 nM.

Consider `CC(C)(C)C[C@@H]1N[C@@H](C(=O)Nc2ccc(C#N)cc2)[C@H](c2cccc(Br)c2F)[C@]12C(=O)Nc1cc(Cl)ccc12` (racemic) [Example 98, rac-(2′S,3′R,4′S,5′R)-4′-(3-bromo-2-fluoro-phenyl)-6-chloro-2′-(2,2-dimethyl-propyl)-2-oxo-1,2-dihydro-spiro[indole-3,3′-pyrrolidine]-5′-carboxylic acid (4-cyano-phenyl)-amide], for which the IC50 was 18 nM.

Consider `COC(=O)c1ccc(NC(=O)[C@@H]2N[C@@H](CC(C)(C)C)[C@@]3(C(=O)Nc4cc(Cl)ccc43)[C@H]2c2cccc(Cl)c2F)cc1Cl` (racemic) [Example 25, rac-2-chloro-4-{[(2′S,3′R,4′S,5′R)-6-chloro-4′-(3-chloro-2-fluoro-phenyl)-2′-(2,2-dimethyl-propyl)-2-oxo-1,2-dihydro-spiro[indole-3,3′-pyrrolidine]-5′-carbonyl]-amino}-benzoic acid methyl ester], for which the IC50 was 20 nM.

On to `COc1cc(C(=O)O)c(F)cc1NC(=O)[C@@H]1N[C@@H](CC(C)(C)C)[C@@]2(C(=O)Nc3cc(Cl)ccc32)[C@H]1c1cccc(Cl)c1F` (racemic) [Example 215, rac-4-{[(2′S,3′R,4′S,5′R)-6-chloro-4′-(3-chloro-2-fluoro-phenyl)-2′-(2,2-dimethyl-propyl)-2-oxo-1,2-dihydro-spiro[indole-3,3′-pyrrolidine]-5′-carbonyl]-amino}-2-fluoro-5-methoxy-benzoic acid], for which the IC50 turned out to be 11 nM.

On to `COc1cc(C(N)=O)ccc1NC(=O)[C@@H]1N[C@@H](CC(C)(C)C)[C@@]2(C(=O)Nc3c2ccc(Cl)c3F)[C@H]1c1cccc(Cl)c1F` (racemic) [Example 178, rac-(2′S,3′R,4′S,5′R)-6-chloro-4′-(3-chloro-2-fluoro-phenyl)-2′-(2,2-dimethyl-propyl)-7-fluoro-2-oxo-1,2-dihydro-spiro[indole-3,3′-pyrrolidine]-5′-carboxylic acid (4-carbamoyl-2-methoxy-phenyl)-amide], for which the 50% inhibitory concentration (IC50) was 15 nM.

`COc1cc(C(N)=O)ccc1NC(=O)[C@@H]1N[C@@H](CC(C)(C)C)[C@@]2(C(=O)Nc3cc(Cl)ccc32)[C@H]1c1cccc(Cl)c1` (racemic) [Example 67, rac-(2′S,3′R,4′R,5′R)-6-chloro-4′-(3-chloro-phenyl)-2′-(2,2-dimethyl-propyl)-2-oxo-1,2-dihydro-spiro[indole-3,3′-pyrrolidine]-5′-carboxylic acid (4-carbamoyl-2-methoxy-phenyl)-amide]: the IC50 came out at 10 nM.

As for `CC(C)(C)C[C@@H]1N[C@@H](C(=O)Nc2cccc(C(N)=O)c2)[C@H](c2cccc(Cl)c2F)[C@]12C(=O)Nc1cc(Cl)ccc12` (racemic) [Example 33, rac-(2′S,3′R,4′S,5′R)-6-chloro-4′-(3-chloro-2-fluoro-phenyl)-2′-(2,2-dimethyl-propyl)-2-oxo-1,2-dihydro-spiro[indole-3,3′-pyrrolidine]-5′-carboxylic acid (3-carbamoyl-phenyl)-amide], the IC50 turned out to be 13 nM.

For the molecule `CC(C)(C)C[C@@H]1N[C@@H](C(=O)Nc2ccc(C#N)cc2)[C@H](c2cc(F)cc(Cl)c2)[C@]12C(=O)Nc1cc(Cl)ccc12` (racemic) [Example 88, rac-(2′S,3′R,4′R,5′R)-6-chloro-4′-(3-chloro-5-fluoro-phenyl)-2′-(2,2-dimethyl-propyl)-2-oxo-1,2-dihydro-spiro[indole-3,3′-pyrrolidine]-5′-carboxylic acid (4-cyano-phenyl)-amide], the IC50 was determined as 13 nM.

Regarding `CC(C)(C)C[C@@H]1N[C@@H](C(=O)Nc2ccn(CCO)n2)[C@H](c2cccc(Cl)c2F)[C@]12C(=O)Nc1cc(Cl)ccc12` (racemic) [Example 44, rac-(2′S,3′R,4′S,5′R)-6-chloro-4′-(3-chloro-2-fluoro-phenyl)-2′-(2,2-dimethyl-propyl)-2-oxo-1,2-dihydro-spiro[indole-3,3′-pyrrolidine]-5′-carboxylic acid [1-(2-hydroxy-ethyl)-1H-pyrazol-3-yl]-amide], the IC50 was 10 nM.
